According to ChEMBL document CHEMBL1146999, “Bradykinin antagonists modified with dipeptide mimetic beta-turn inducers” (Bioorg Med Chem Lett, 2006):
pKi: −log10 of the molar value.

Experiments:
B2 bradykinin receptor [1] = molecular target: T1, B2 bradykinin receptor (Homo sapiens, UniProt P30411); test: Antagonist activity against bradykinin B2 receptor; assay type: functional; settings: read-out: pA2 (converted)
T1 sequence (P30411 whole entry): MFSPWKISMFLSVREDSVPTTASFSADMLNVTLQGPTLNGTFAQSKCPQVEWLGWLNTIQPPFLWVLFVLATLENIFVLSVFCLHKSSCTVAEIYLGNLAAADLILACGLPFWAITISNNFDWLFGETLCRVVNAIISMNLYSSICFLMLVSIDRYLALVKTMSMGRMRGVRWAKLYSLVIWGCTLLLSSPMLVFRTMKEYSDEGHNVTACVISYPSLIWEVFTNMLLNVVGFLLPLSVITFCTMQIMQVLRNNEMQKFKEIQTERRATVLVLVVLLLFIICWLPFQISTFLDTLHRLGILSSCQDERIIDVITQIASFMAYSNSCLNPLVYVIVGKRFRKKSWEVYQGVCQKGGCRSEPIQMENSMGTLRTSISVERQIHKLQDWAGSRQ

B2 bradykinin receptor [2] = molecular target: T1, B2 bradykinin receptor; test: Binding affinity to human bradykinin B2 receptor transfected in CHO cells; assay type: cell-based

Kb (B2 bradykinin receptor [1]) [nM]	pKi (B2 bradykinin receptor [2])	SMILES
> 10000	5.50	NC(N)=NCCC[C@@H](N)C(=O)N[C@@H](CCCN=C(N)N)C(=O)N1CCC[C@H]1C(=O)N1CC(O)C[C@H]1C(=O)NCC(=O)N[C@@H](Cc1cccs1)C(=O)N[C@@H](CO)C(=O)N[C@]1(Cc2ccccc2)CCCC2N(C1=O)[C@H](C(=O)N[C@@H](CCCN=C(N)N)C(=O)O)CC21CCCC1 (some centres undefined)
2510	7.00	NC(N)=NCCC[C@@H](N)C(=O)N[C@@H](CCCN=C(N)N)C(=O)N1CCC[C@H]1C(=O)N1CC(O)C[C@H]1C(=O)NCC(=O)N[C@@H](Cc1cccs1)C(=O)N[C@@H](CO)C(=O)N[C@@]1(Cc2ccccc2)CCCC2N(C1=O)[C@H](C(=O)N[C@@H](CCCN=C(N)N)C(=O)O)CC21CCCC1 (some centres undefined)
